{"source": "patent US7273614B2", "about": "(priority 1993, dated 2007)", "key": {"[1]": {"molecular_target": "viral gp41 of HIV-1 (HIV-1IIIB) (HIV-1 IIIB) (UniProt P03377)", "experiment": "cell-based or functional assay"}, "HIV-2": {"tested_on": "HIV-2", "experiment": "Cell fusion assay: HIV-2 mediated syncytia formation", "assay_type": "cell-based", "settings": "failed to block at highest concentration; FIG. 5", "description": "Approximately 7×10^4 Molt cells were incubated with 1×10^4 CEM cells chronically infected with the HIV-1LAI virus in 96-well plates (one-half area cluster plates; Costar, Cambridge, Mass.) in a final volume of 100 μl culture medium as previously described (Matthews, T. J. et al., 1987, Proc. Natl. Acad. Sci. USA 84: 5424-5428). Peptide inhibitors were added in a volume of 10 μl and the cell mixtures were incubated for 24 hr. at 37° C. At that time, multinucleated giant cells were estimated by microscopic examination at a 40× magnification which allowed visualization of the entire well in a single field."}, "HIV-2NIHZ": {"tested_on": "HIV-2NIHZ", "experiment": "Cell free virus infection assay (CEM CD4+ cells, reverse transcriptase readout)", "assay_type": "cell-based", "protocol": "(§1) Synthetic peptides were incubated at 37° C. with either 247 TCID50 (for experiment depicted in FIG. 2), or 62 TCID50 (for experiment depicted in FIG. 3) units of HIV-1LAI virus or 25 TCID50 units of HIV-2NIHZ and CEM CD4+ cells at peptide concentrations of 0, 0.04, 0.4, 4.0, and 40 μg/ml for 7 days. The resulting reverse transcriptase (RT) activity in counts per minute was determined using the assay described, below, in Section 6.1.5. See, Reed, L. J. et al., 1938, Am. J. Hyg. 27: 493-497 for an explanation of TCID50 calculations.\n(§2) The micro-reverse transcriptase (RT) assay was adapted from Goff et al. (Goff, S. et al., 1981, J. Virol. 38:239-248) and Willey et al. (Willey, R. et al., 1988, J. Virol. 62:139-147). Supernatants from virus/cell cultures are adjusted to 1% Triton-X100. A 10 μl sample of supernatant was added to 50 μl of RT cocktail in a 96-well U-bottom microtitre plate and the samples incubated at 37° C. for 90 min. The RT cocktail contained 75 mM KCl, 2 mM dithiothreitol, 5 mM MgCl2, 5 μg/ml poly A (Pharmacia, cat. No. 27-4110-01), 0.25 units/ml oligo dT (Pharmacia, cat. No. 27-7858-01), 0.05% NP40, 50 mM Tris-HCl, pH 7.8, 0.5 μM non-radioactive dTTP, and 10 μCi/ml ^32P-dTTP (Amersham, cat. No. PB.10167). […]"}, "Fab-d": {"tested_on": "Fab-d", "experiment": "ELISA analysis of DP178 binding to the leucine zipper motif of gp41 (Fab-d ELISA)", "parameters": "species or system human", "settings": "FIG. 10", "description": "Each well was washed three times with distilled water then blocked with 3% bovine serum albumin (BSA) for 2 hours. After blocking, peptides with 0.5% BSA in TBST (40 mM Tris-HCl pH7.5, 150 mM NaCl, 0.05% Tween 20) were added to the ELISA plates and incubated at room temperature for 1 hour. After washing three times with TBST, Fab-d was added at a concentration of 10 ng/ml with 0.5% BSA in TBST. The plates were washed three times with TBST after incubation at room temperature for 1 hour. Horse radish peroxidase (HRP) conjugated goat antihuman Fab antiserum at a 2000 fold dilution in TBST with 0.5% BSA was added to each well and incubated at room temperature for 45 minutes. The plates were then washed four times with TBST. The peroxidase substrate o-phenylene diamine (2.5 mg/ml) and 0.15% H2O2 were added to develop the color. The reaction was stopped with an equal volume of 4.5 N H2SO4 after incubation at room temperature for 10 minutes. The optical density of the stopped reaction mixture was measured with a micro plate reader (Molecular Design) at 490 nm."}, "HIV-1IIIB": {"tested_on": "HIV-1IIIB", "assay_type": "cell-based", "settings": "10 nM peptide", "protocol": "CEM cells (7×10^4) were incubated with HIV-1IIIB chronically infected CEM cells (10^4) in 96-well flat-bottomed half-area plates (Costar) in 100 μl culture medium. Peptide and fusion proteins at various concentrations in 10 μl culture medium were incubated with the cell mixtures at 37° C. for 24 hours. Multinucleated syncytia were estimated with microscopic examination."}, "HIV-1/IIIb": {"tested_on": "HIV-1/IIIb", "experiment": "Anti-HIV assays of DP107 and DP178 truncations and mutations", "assay_type": "cell-based", "settings": "FIGS. 49, 50", "source_text": "Anti-HIV assays: The antiviral assays performed were as those described, above, in Section 6.1. Assays utilized HIV-1/IIIb and/or HIV-2 NIHZ isolates. Purified peptides were used, unless otherwise noted in FIGS. 49A-L."}, "HIV-1LAI [2]": {"tested_on": "HIV-1LAI", "settings": "Wild et al. 1992; cited from earlier work"}, "HIV-1LAI [3]": {"tested_on": "HIV-1LAI", "experiment": "Cell free virus infection assay (CEM CD4+ cells, reverse transcriptase readout)", "assay_type": "cell-based", "settings": "FIG. 1 legend", "protocol": "as §1, §2"}, "CEM cells": {"tested_on": "CEM cells", "experiment": "Cell proliferation and toxicity assay", "assay_type": "cell-based", "protocol": "Cell proliferation and toxicity assay: Approximately 3.8×10^5 CEM cells for each peptide concentration were incubated for 3 days at 37° C. in T25 flasks. Peptides tested were DP178 (SEQ ID:1) and DP-116 (SEQ ID:9), as described in FIG. 1. Peptides were synthesized as described, above, in Section 6.1. The concentrations of each peptide used were 0, 2.5, 10, and 40 μg/ml. Cell counts were taken at incubation times of 0, 24, 48, and 72 hours."}}, "note": "“Also recorded” adds a separate entry of the source. Where two headings read alike, the source gives them in different places. Peptide text beside a SMILES is read from it.", "data": [{"molecule": "DP178 (SEQ ID NO:1), synthetic peptide corresponding to amino acids 638 to 673 of HIV-1LAI gp41", "values": [{"measurement": "Cell fusion (IC90)", "setting": "[1]", "value": 0.001, "unit": "µM"}, {"measurement": "HIV infectivity (IC90)", "setting": "[1]", "value": 0.08, "unit": "µM"}]}, {"molecule": "DP107 (SEQ ID NO: 89), synthetic peptide corresponding to amino acids 558 to 595 of HIV-1LAI gp41", "values": [{"measurement": "Cell fusion (IC90)", "setting": "[1]", "value": 1, "unit": "µM"}, {"measurement": "HIV infectivity (IC90)", "setting": "[1]", "value": 1, "unit": "µM"}]}, {"molecule": "M41, maltose binding protein fusion with the extracellular domain of gp41 (540-686) (from UniProt P03377 540-686)", "values": [{"measurement": "Cell fusion (IC90)", "setting": "[1]", "value": "> 50", "unit": "µM"}, {"measurement": "HIV infectivity (IC90)", "setting": "[1]", "value": "> 16", "unit": "µM"}]}, {"molecule": "Enfuvirtide", "values": [{"measurement": "peptide concentration blocking HIV-2 mediated syncytia formation", "setting": "HIV-2", "value": "> 10", "unit": "µg/mL"}, {"measurement": "IC50 for HIV-2NIHZ (in words)", "setting": "HIV-2NIHZ; 25 TCID50 HIV-2NIHZ, CEM cells, 7 days, FIG. 3", "value": "much higher IC50"}, {"measurement": "potency as HIV-1 inhibitor relative to HIV-2 inhibitor", "setting": "HIV-2NIHZ; HIV-1LAI vs HIV-2NIHZ cell-free infection", "value": "two logs more potent"}, {"measurement": "Fab-d binding (in words)", "setting": "Fab-d", "value": "failed to bind"}, {"measurement": "syncytia in the presence of peptide (in words)", "setting": "HIV-1IIIB", "value": "no observable syncytia"}, {"measurement": "concentration affording complete protection against syncytia formation (lowest concentration tested)", "setting": "HIV-1; HIV-1LAI, FIG. 4", "value": "≤ 12.5", "unit": "ng/mL"}, {"measurement": "concentration affording complete protection against syncytia formation (lowest concentration tested)", "setting": "HIV-1; HIV-1MN, HIV-1RF, HIV-1SF2, FIG. 4", "value": "≤ 100", "unit": "ng/mL"}, {"measurement": "concentration completely blocking virus induced syncytia formation (lowest effective inhibitory concentration)", "setting": "HIV-1; HIV-1 mediated cell-cell fusion", "value": "1 to 10", "unit": "ng/mL"}, {"measurement": "selectivity as inhibitor of HIV-1-mediated over HIV-2-mediated cell fusion", "setting": "HIV-1; HIV-1 vs HIV-2", "value": 4, "unit": "log"}, {"measurement": "peptide concentration blocking HIV-1-mediated syncytia formation", "setting": "HIV-1; HIV-1 vs HIV-2 comparison, FIG. 5", "value": "below 1 ng/ml"}]}, {"molecule": "T-677: SEQ ID NO. 165; DP178 truncation/mutation peptide (FWNWLSAWKDLELYPGSLELDKWASLWNWF)", "values": [{"measurement": "anti-HIV antiviral activity (in words)", "setting": "HIV-1/IIIb", "value": "high level of antiviral activity"}]}, {"molecule": "T-377: SEQ ID NO. 167; DP178 truncation/mutation peptide (CLELDKWASLANWFC)", "values": [{"measurement": "anti-HIV antiviral activity (in words)", "setting": "HIV-1/IIIb", "value": "high level of antiviral activity"}]}, {"molecule": "T-381: SEQ ID NO. 164; DP178 truncation/mutation peptide (RMKQLEDKVEELLSKNYHLENELELDKWASLWNWF)", "values": [{"measurement": "anti-HIV antiviral activity (in words)", "setting": "HIV-1/IIIb", "value": "high level of antiviral activity"}]}, {"molecule": "CC[C@H](C)[C@H](NC(=O)[C@H](CCCNC(=N)N)NC(=O)[C@H](C)NC(=O)[C@H](CCC(N)=O)NC(=O)[C@H](CC(C)C)NC(C)=O)C(=O)N[C@@H](CC(C)C)C(=O)N[C@@H](C)C(=O)N[C@H](C(=O)N[C@@H](CCC(=O)O)C(=O)N[C@@H](CCCNC(=N)N)C(=O)N[C@@H](Cc1ccc(O)cc1)C(=O)N[C@@H](CC(C)C)C(=O)N[C@@H](CCCCN)C(=O)N[C@@H](CC(=O)O)C(=O)N[C@@H](CCC(N)=O)C(=O)N[C@@H](CCC(N)=O)C(=O)N[C@@H](CCC(N)=O)C(N)=O)C(C)C", "note": "[DP-116] (Ac-LQARILAVERYLKDQQQ-NH2)", "values": [{"measurement": "activity in cell-free HIV-1 infection assay, previously shown (in words)", "setting": "HIV-1LAI [2]", "value": "inactive; also recorded: ineffective as a HIV inhibitor"}, {"measurement": "inhibition of HIV-1 cell free virus infection (in words)", "setting": "HIV-1LAI [3]", "value": "negative for inhibition of HIV-1 infection"}]}, {"molecule": "T-611: SEQ ID NO. 175; DP178 truncation/mutation peptide (LKLDKWASLWNWF)", "values": [{"measurement": "anti-HIV antiviral activity (in words)", "setting": "HIV-1/IIIb", "value": "high level of antiviral activity"}]}, {"molecule": "T-590: SEQ ID NO. 167; DP178 truncation/mutation peptide (CLELDKWASLANWFC)", "values": [{"measurement": "anti-HIV antiviral activity (in words)", "setting": "HIV-1/IIIb", "value": "high level of antiviral activity"}]}, {"molecule": "T-591: SEQ ID NO. 168; DP178 truncation/mutation peptide (CLELDKWASLWNFFC)", "values": [{"measurement": "anti-HIV antiviral activity (in words)", "setting": "HIV-1/IIIb", "value": "high level of antiviral activity"}]}, {"molecule": "enfuvirtide", "values": [{"measurement": "non-cytotoxic concentration relative to HIV inhibitory dose", "setting": "CEM cells; 40 μg/ml vs HIV inhibitory dose", "value": "greater than 3 log"}, {"measurement": "cytotoxic effects on cells in culture (in words)", "setting": "CEM cells; up to highest peptide concentration tested, 40 μg/ml, CEM cells, 3 days", "value": "not toxic to cells; also recorded: non-cytotoxic; also recorded: no cytotoxic effects"}]}, {"molecule": "H-YTNTIYTLLEESQNQQEKNEQELLELDKWASLWNWF-OH [DP-185]", "values": [{"measurement": "HIV-1-mediated syncytia formation (in words)", "setting": "HIV-1", "value": "block HIV-1-mediated syncytia formation"}, {"measurement": "concentration with inhibitory activity on HIV-1-induced syncytia formation", "setting": "HIV-1; lowest concentration tested, FIG. 4", "value": "≤ 312.5", "unit": "ng/mL"}]}, {"molecule": "T-378: SEQ ID NO. 168; DP178 truncation/mutation peptide (CLELDKWASLWNFFC)", "values": [{"measurement": "anti-HIV antiviral activity (in words)", "setting": "HIV-1/IIIb", "value": "high level of antiviral activity"}]}, {"molecule": "T-235: SEQ ID NO. 162; DP178 truncation/mutation peptide (RMKQLEDKVEELLSKLELDKWASLWNWF)", "values": [{"measurement": "anti-HIV antiviral activity (in words)", "setting": "HIV-1/IIIb", "value": "high level of antiviral activity"}]}]}
